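Exposure lasted 48 hours, with cells grown in 96-well plates and compounds tested at five concentrations. GI50 = concentration required for 50% inhibition of growth.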 The source made the active and inactive calls. Cut-off read from the data, not from the text of the source: active = GI50 up to about 1.1 µM and inactive = higher.
Key:
Experiment in all cases: inhibition of tumour cell growth, NCI panel, 48 h
786-0 = system: 786-0
A498 = system: A498
A549 = system: A549
ACHN = system: ACHN
BT-549 = system: BT-549
CAKI-1 = system: CAKI-1
CCRF-CEM = system: CCRF-CEM
COLO 205 = system: COLO 205
DU-145 = system: DU-145
EKVX = system: EKVX
HCC 2998 = system: HCC 2998
HCT-116 = system: HCT-116
HCT-15 = system: HCT-15
HL-60 = system: HL-60
HOP-62 = system: HOP-62
HOP-92 = system: HOP-92
HT-29 = system: HT-29
Hs-578T = system: Hs-578T
IGROV-1 = system: IGROV-1
K562 = system: K562
KM12 = system: KM12
LOX IMVI = system: LOX IMVI
M14 = system: M14
MCF7 = system: MCF7
MDA-MB-231 = system: MDA-MB-231
MDA-MB-435 = system: MDA-MB-435
MDA-N = system: MDA-N
MOLT-4 = system: MOLT-4
Malme-3M = system: Malme-3M
NCI-H226 = system: NCI-H226
NCI-H23 = system: NCI-H23
NCI-H460 = system: NCI-H460
NCI-H522 = system: NCI-H522
NCI/ADR-RES = system: NCI/ADR-RES
OVCAR-3 = system: OVCAR-3
OVCAR-4 = system: OVCAR-4
OVCAR-5 = system: OVCAR-5
OVCAR-8 = system: OVCAR-8
PC-3 = system: PC-3
RPMI-8226 = system: RPMI-8226
RXF 393 = system: RXF 393
SF-268 = system: SF-268
SF-295 = system: SF-295
SF-539 = system: SF-539
SK-MEL-28 = system: SK-MEL-28
SK-MEL-2 = system: SK-MEL-2
SK-MEL-5 = system: SK-MEL-5
SN12C = system: SN12C
SNB-19 = system: SNB-19
SNB-75 = system: SNB-75
SR = system: SR
SW-620 = system: SW-620
T47D = system: T47D
U-251 = system: U-251
UACC-257 = system: UACC-257
UACC-62 = system: UACC-62
UO-31 = system: UO-31

## Cc1cc(=O)oc2c(C)c(O)ccc12
786-0
  GI50: > 100 µM (inactive)
A498
  GI50: 78.9 µM (inactive)
A549
  GI50: > 100 µM (inactive)
ACHN
  GI50: > 100 µM (inactive)
BT-549
  GI50: 35.4 µM (inactive)
CAKI-1
  GI50: 55.6 µM (inactive)
CCRF-CEM
  GI50: > 100 µM (inactive)
COLO 205
  GI50: > 100 µM (inactive)
DU-145
  GI50: > 100 µM (inactive)
EKVX
  GI50: > 100 µM (inactive)
HCC 2998
  GI50: > 100 µM (inactive)
HCT-116
  GI50: > 100 µM (inactive)
HCT-15
  GI50: > 100 µM
HL-60
  GI50: 48.6 µM (inactive)
HOP-62
  GI50: > 100 µM (inactive)
HOP-92
  GI50: > 100 µM (inactive)
HT-29
  GI50: > 100 µM (inactive)
Hs-578T
  GI50: > 100 µM (inactive)
IGROV-1
  GI50: > 100 µM (inactive)
K562
  GI50: > 100 µM (inactive)
KM12
  GI50: > 100 µM (inactive)
LOX IMVI
  GI50: > 100 µM (inactive)
M14
  GI50: > 100 µM (inactive)
MCF7
  GI50: > 100 µM (inactive)
MDA-MB-231
  GI50: > 100 µM (inactive)
MDA-MB-435
  GI50: > 100 µM (inactive)
MDA-N
  GI50: > 100 µM (inactive)
MOLT-4
  GI50: 89.1 µM (inactive)
Malme-3M
  GI50: > 100 µM (inactive)
NCI-H226
  GI50: > 100 µM (inactive)
NCI-H23
  GI50: > 100 µM (inactive)
NCI-H460
  GI50: > 100 µM (inactive)
NCI-H522
  GI50: > 100 µM (inactive)
NCI/ADR-RES
  GI50: > 100 µM (inactive)
OVCAR-3
  GI50: > 100 µM (inactive)
OVCAR-4
  GI50: > 100 µM (inactive)
OVCAR-5
  GI50: > 100 µM (inactive)
OVCAR-8
  GI50: > 100 µM (inactive)
PC-3
  GI50: > 100 µM (inactive)
RPMI-8226
  GI50: 62.1 µM (inactive)
RXF 393
  GI50: > 100 µM (inactive)
SF-268
  GI50: > 100 µM (inactive)
SF-295
  GI50: > 100 µM (inactive)
SF-539
  GI50: > 100 µM (inactive)
SK-MEL-28
  GI50: > 100 µM (inactive)
SK-MEL-2
  GI50: > 100 µM (inactive)
SK-MEL-5
  GI50: > 100 µM (inactive)
SN12C
  GI50: > 100 µM (inactive)
SNB-19
  GI50: > 100 µM (inactive)
SNB-75
  GI50: > 100 µM (inactive)
SR
  GI50: > 100 µM (inactive)
SW-620
  GI50: > 100 µM (inactive)
T47D
  GI50: > 100 µM (inactive)
U-251
  GI50: > 100 µM (inactive)
UACC-257
  GI50: > 100 µM (inactive)
UACC-62
  GI50: 99.3 µM (inactive)
UO-31
  GI50: 22.4 µM (inactive)
